The supplement of paper PMC11061612

Tests used:
AZD1775 = compound: C=CCn1c(=O)c2cnc(Nc3ccc(N4CCN(C)CC4)cc3)nc2n1-c1cccc(C(C)(C)O)n1 [AZD1775]; conditions: max 3 µM
Outline: (§1)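 Cancer cell lines were plated in 1536-well plates in 7.5 μl of DMEM/F12 or RPMI with 10% FBS and kept 24 hours at 37°C and 5% CO2 before 72 hours of dosing, with final DMSO typically 0.2%. CellTiter-Glo 2.0 luminescence measured viability, scaled between blank-well and DMSO-well means. Dose responses were fitted to a two-parameter logistic curve with a non-linear mixed effects model. This fit gives the single-agent IC50.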

AZD4320 = compound: CN(CC[C@H](CSC1=CC=CC=C1)NC2=C(C=C(C=C2)S(=O)(=O)NC(=O)C3=CC=C(C=C3)N4CCC(CC4)[C@H](C5=CC=CC=C5C6=CC=C(C=C6)Cl)O)S(=O)(=O)C(F)(F)F)CCO [AZD4320]; conditions: max 1 µM
Outline: as §1

Capivasertib = compound: C1CN(CCC1(C(=O)N[C@@H](CCO)C2=CC=C(C=C2)Cl)N)C3=NC=NC4=C3C=CN4 [Capivasertib]
Outline: as §1

AZD5153 = compound: COc1nnc2ccc(N3CCC(c4ccc(OCCN5CCN(C)C(=O)[C@H]5C)cc4)CC3)nn12 [AZD5153]; conditions: max 1 µM
Outline: as §1

AZD5991 = compound: Cc1c2c(nn1C)CSCc1cc(n(C)n1)CSc1cc(c3ccccc3c1)OCCCc1c(C(=O)O)n(C)c3c-2c(Cl)ccc13 [AZD5991]; conditions: max 1 µM
Outline: as §1

Savolitinib = compound: C[C@@H](c1ccc2nccn2c1)n1nnc2ncc(-c3cnn(C)c3)nc21 [Savolitinib]; conditions: max 1 µM
Outline: as §1

AZD7648 = compound: Cc1cc2ncnn2cc1Nc1ncc2c(n1)n(C1CCOCC1)c(=O)n2C [AZD7648]; conditions: max 10 µM
Outline: as §1

SN-38 = compound: CCc1c2c(nc3ccc(O)cc13)-c1cc3c(c(=O)n1C2)COC(=O)[C@]3(O)CC [SN-38]; conditions: max 0.3 µM
Outline: as §1

Palbociclib = compound: CC(=O)c1c(C)c2cnc(Nc3ccc(N4CCNCC4)cn3)nc2n(C2CCCC2)c1=O [Palbociclib]; conditions: max 10 µM
Outline: as §1

AZD6738 = compound: C[C@@H]1COCCN1C2=NC(=NC(=C2)C3(CC3)[S@](=N)(=O)C)C4=C5C=CNC5=NC=C4 [AZD6738]; conditions: max 10 µM
Outline: as §1

AZD8186 = compound: C[C@@H](Nc1cc(F)cc(F)c1)c1cc(C(=O)N(C)C)cc2c(=O)cc(N3CCOCC3)oc12 [AZD8186]
Outline: as §1

Taselisib = compound: Cc1nc(-c2cn3c(n2)-c2ccc(-c4cnn(C(C)(C)C(N)=O)c4)cc2OCC3)n(C(C)C)n1 [Taselisib]; conditions: max 10 µM
Outline: as §1

Alisertib = compound: COc1cc(Nc2ncc3c(n2)-c2ccc(Cl)cc2C(c2c(F)cccc2OC)=NC3)ccc1C(=O)O [Alisertib]; conditions: max 10 µM
Outline: as §1

Gefitinib = compound: COc1cc2ncnc(Nc3ccc(F)c(Cl)c3)c2cc1OCCCN1CCOCC1 [Gefitinib]; conditions: max 10 µM
Outline: as §1

Prexasertib = compound: COc1cccc(OCCCN)c1-c1cc(Nc2cnc(C#N)cn2)n[nH]1 [Prexasertib]; conditions: max 1 µM
Outline: as §1

SG3199 = compound: CC1=CN2[C@@H](C1)C=NC3=CC(=C(C=C3C2=O)OC)OCCCCCOC4=C(C=C5C(=C4)N=C[C@@H]6CC(=CN6C5=O)C)OC [SG3199]; conditions: max 0.001 µM
Outline: as §1

AZD2811 = compound: CCN(CCO)CCCOc1ccc2c(Nc3cc(CC(=O)Nc4cccc(F)c4)[nH]n3)ncnc2c1 [AZD2811]; conditions: max 1 µM
Outline: as §1

AZD1390 = compound: CC(C)n1c(=O)n(C)c2cnc3cc(F)c(-c4ccc(OCCCN5CCCCC5)nc4)cc3c21 [AZD1390]; conditions: max 0.3 µM
Outline: as §1

Trametinib = compound: CC(=O)Nc1cccc(-n2c(=O)n(C3CC3)c(=O)c3c(Nc4ccc(I)cc4F)n(C)c(=O)c(C)c32)c1 [Trametinib]; conditions: max 1 µM
Outline: as §1

Crizotinib = compound: C[C@@H](Oc1cc(-c2cnn(C3CCNCC3)c2)cnc1N)c1c(Cl)ccc(F)c1Cl [Crizotinib]; conditions: max 10 µM
Outline: as §1

Lapatinib = compound: CS(=O)(=O)CCNCc1ccc(-c2ccc3ncnc(Nc4ccc(OCc5cccc(F)c5)c(Cl)c4)c3c2)o1 [Lapatinib]; conditions: max 10 µM
Outline: as §1

Dasatinib = compound: CC1=C(C(=CC=C1)Cl)NC(=O)C2=CN=C(S2)NC3=CC(=NC(=N3)C)N4CCN(CC4)CCO [Dasatinib]; conditions: max 2 µM
Outline: as §1

AZD0156 = compound: CN(C)CCCOc1ccc(-c2ccc3ncc4c(c3c2)n(C2CCOCC2)c(=O)n4C)cn1 [AZD0156]; conditions: max 3 µM
Outline: as §1

Selumetinib = compound: Cn1cnc2c(F)c(Nc3ccc(Br)cc3Cl)c(C(=O)NOCCO)cc21 [Selumetinib]; conditions: max 10 µM
Outline: as §1

Olaparib = compound: O=C(c1cc(Cc2n[nH]c(=O)c3ccccc23)ccc1F)N1CCN(C(=O)C2CC2)CC1 [Olaparib]
Outline: as §1

Doxorubicin = compound: COc1cccc2c1C(=O)c1c(O)c3c(c(O)c1C2=O)C[C@@](O)(C(=O)CO)C[C@@H]3O[C@H]1C[C@H](N)[C@H](O)[C@H](C)O1 [Doxorubicin]; conditions: max 1 µM
Outline: as §1

Venetoclax = compound: CC1(C)CCC(CN2CCN(c3ccc(C(=O)NS(=O)(=O)c4ccc(NCC5CCOCC5)c([N+](=O)[O-])c4)c(Oc4cnc5[nH]ccc5c4)c3)CC2)=C(c2ccc(Cl)cc2)C1 [Venetoclax]; conditions: max 1 µM
Outline: as §1

AZD5363 = compound: C1CN(CCC1(C(=O)N[C@@H](CCO)C2=CC=C(C=C2)Cl)N)C3=NC=NC4=C3C=CN4 [AZD5363]; conditions: max 10 µM
Outline: as §1

SRA737 = compound: N#Cc1cnc(Nc2cc(NC[C@H]3CNCCO3)c(C(F)(F)F)cn2)cn1 [SRA737]; conditions: max 10 µM
Outline: as §1

MK-2206 = compound: NC1(c2ccc(-c3nc4ccn5c(=O)[nH]nc5c4cc3-c3ccccc3)cc2)CCC1 [MK-2206]; conditions: max 10 µM
Outline: as §1

Carboplatin = compound: C1CC(C1)(C(=O)[O-])C(=O)[O-].N.N.[Pt+2] [Carboplatin]; conditions: max 10 µM
Outline: as §1

Gemcitabine = compound: Nc1ccn([C@@H]2O[C@H](CO)[C@@H](O)C2(F)F)c(=O)n1 [Gemcitabine]; conditions: max 0.3 µM
Outline: as §1

Paclitaxel = compound: CC(=O)O[C@H]1C(=O)[C@@]2(C)[C@H]([C@H](OC(=O)c3ccccc3)[C@]3(O)C[C@H](OC(=O)[C@H](O)[C@@H](NC(=O)c4ccccc4)c4ccccc4)C(C)=C1C3(C)C)[C@]1(OC(C)=O)CO[C@@H]1C[C@@H]2O [Paclitaxel]; conditions: max 3 µM
Outline: as §1

Etoposide = compound: COc1cc([C@@H]2c3cc4c(cc3[C@@H](O[C@@H]3O[C@@H]5CO[C@@H](C)O[C@H]5[C@H](O)[C@H]3O)[C@H]3COC(=O)[C@H]23)OCO4)cc(OC)c1O [Etoposide]; conditions: max 10 µM
Outline: as §1

5-Fluorouracil = compound: O=c1[nH]cc(F)c(=O)[nH]1 [5-Fluorouracil]; conditions: max 20 µM
Outline: as §1

[1] = compound: O=C(Nc1ccc2[nH]nc(-c3ccncc3)c2c1)[C@@H]1CCN(CC(=O)N2CCN(c3ccc(-c4ncccn4)cc3)CC2)C1; conditions: max 5 µM
Outline: as §1

Cell Line	IC50, cell viability 72 h (AZD1775)	IC50, cell viability 72 h (AZD4320)	IC50, cell viability 72 h (Capivasertib; max 10 µM)	IC50, cell viability 72 h (AZD5153)	IC50, cell viability 72 h (AZD5991)	IC50, cell viability 72 h (Savolitinib)	IC50, cell viability 72 h (AZD7648)	IC50, cell viability 72 h (SN-38)	IC50, cell viability 72 h (Palbociclib)	IC50, cell viability 72 h (AZD6738)	IC50, cell viability 72 h (AZD8186; max 3 µM)	IC50, cell viability 72 h (Taselisib)	IC50, cell viability 72 h (Alisertib)	IC50, cell viability 72 h (Gefitinib)	IC50, cell viability 72 h (Prexasertib)	IC50, cell viability 72 h (SG3199)	IC50, cell viability 72 h (AZD2811)	IC50, cell viability 72 h (AZD1390)	IC50, cell viability 72 h (Trametinib)	IC50, cell viability 72 h (Crizotinib)	IC50, cell viability 72 h (Lapatinib)	IC50, cell viability 72 h (Dasatinib)	IC50, cell viability 72 h (AZD0156)	IC50, cell viability 72 h (Selumetinib)	IC50, cell viability 72 h (Olaparib; max 10 µM)	IC50, cell viability 72 h (Doxorubicin)	IC50, cell viability 72 h (Venetoclax)	IC50, cell viability 72 h (Olaparib; max 3 µM)	IC50, cell viability 72 h (Capivasertib; max 3 µM)	IC50, cell viability 72 h (AZD5363)	IC50, cell viability 72 h (SRA737)	IC50, cell viability 72 h (MK-2206)	IC50, cell viability 72 h (AZD8186; max 10 µM)	IC50, cell viability 72 h (Carboplatin)	IC50, cell viability 72 h (Gemcitabine)	IC50, cell viability 72 h (Paclitaxel)	IC50, cell viability 72 h (Etoposide)	IC50, cell viability 72 h (5-Fluorouracil)	IC50, cell viability 72 h [1]
HuP-T4 (Pancreatic Carcinoma)	1000 nM	> 1000 nM	> 10000 nM	> 1000 nM	> 1000 nM	> 1000 nM	> 10000 nM	8.7 nM	> 10000 nM	> 10000 nM	> 3000 nM	> 10000 nM	> 10000 nM	> 10000 nM	175 nM	> 1 nM	> 1000 nM	> 300 nM	> 1000 nM	> 10000 nM	> 10000 nM	> 2000 nM	> 3000 nM	> 10000 nM	> 10000 nM	946 nM	> 1000 nM												
RC-K8 (B-Cell Non-Hodgkin's Lymphoma)	> 3000 nM	856 nM	> 10000 nM	100 nM	> 1000 nM	> 1000 nM	> 10000 nM	13.4 nM	> 10000 nM	1630 nM	> 3000 nM	7690 nM	3000 nM	> 10000 nM	14.5 nM		> 1000 nM	> 300 nM	> 1000 nM	> 10000 nM	> 10000 nM	> 2000 nM	> 3000 nM	> 10000 nM			> 1000 nM	> 3000 nM											
NCI-H1869 (Non-Small Cell Lung Carcinoma)	> 3000 nM																						> 3000 nM					> 3000 nM	> 3000 nM										
NCI-H82 (Small Cell Lung Carcinoma)	622 nM	> 1000 nM		931 nM	227 nM	> 1000 nM	> 10000 nM	22.7 nM	> 10000 nM	2110 nM		> 10000 nM	1090 nM	> 10000 nM	18.2 nM	> 1 nM	844 nM	> 300 nM	> 1000 nM	3570 nM	> 10000 nM	> 2000 nM	> 3000 nM	> 10000 nM	> 10000 nM	254 nM	> 1000 nM			1360 nM	5800 nM	2690 nM	> 10000 nM	> 10000 nM	32.8 nM	5.46 nM	2450 nM	11800 nM	> 5000 nM
